Experiments:
[1] = Rat in vivo evaluation of toxicity (serum ALT and AST); conditions: ApoB siRNA RDV, tail vein, 24 hours after dosing, FIG. 2
Procedure: Six hours post dose, food is removed from the cages. Animal necropsy is performed 24 hours after LNP dosing. Rats are anesthetized under isoflurane for 5 minutes, then maintained under anesthesia by placing them in nose cones continuing the delivery of isoflurane until ex-sanguination is completed. Blood is collected from the vena cava using a 23 gauge butterfly venipuncture set and aliquoted to serum separator vacutainers for serum chemistry analysis. Punches of the excised caudate liver lobe are taken and placed in RNALater (Ambion) for mRNA analysis. Preserved liver tissue was homogenized and total RNA isolated using a Qiagen bead mill and the Qiagen miRNA-Easy RNA isolation kit following the manufacturer's instructions. Liver ApoB mRNA levels were determined by quantitative RT-PCR. Message was amplified from purified RNA utilizing a rat ApoB commercial probe set (Applied Biosystems Cat #RN01499054_m1). The PCR reaction was performed on an ABI 7500 instrument with a 96-well Fast Block. The ApoB mRNA level is normalized to the housekeeping PPIB (NM 011149) mRNA. PPIB mRNA levels were determined by RT-PCR using a commercial probe set (Applied Biosytems Cat. No. Mm00478295_m1). Results are expressed as a ratio of ApoB mRNA/PPIB mRNA. All mRNA data is expressed relative to the PBS control dose. […]

[2] = Determination of cationic lipid levels in monkey liver (LC/MS-MS); assay type: in vivo; conditions: monkeys, FIG. 7
Procedure: Liver tissue was weighed into 20-ml vials and homogenized in 9 v/w of water using a GenoGrinder 2000 (OPS Diagnostics, 1600 strokes/min, 5 min). A 50 μL aliquot of each tissue homogenate was mixed with 300 μL of extraction/protein precipitating solvent (50/50 acetonitrile/methanol containing 500 nM internal standard) and the plate was centrifuged to sediment precipitated protein. A volume of 200 μL of each supernatant was then transferred to separate wells of a 96-well plate and 10 μl samples were directly analyzed by LC/MS-MS.
Standards were prepared by spiking known amounts of a methanol stock solution of compound into untreated rat liver homogenate (9 vol water/weight liver). Aliquots (50 μL) each standard/liver homogenate was mixed with 300 μL of extraction/protein precipitating solvent (50/50 acetonitrile/methanol containing 500 nM internal standard) and the plate was centrifuged to sediment precipitated protein. A volume of 200 μL of each supernatant was transferred to separate wells of a 96-well plate and 10 μl of each standard was directly analyzed by LC/MS-MS.
Absolute quantification versus standards prepared and extracted from liver homogenate was performed using an Aria LX-2 HPLC system (Thermo Scientific) coupled to an API 4000 triple quadrupole mass spectrometer (Applied Biosystems). […]

SMILES | tolerability (serum ALT and AST) compared with RDV containing DLinKC2DMA (Compound 45) or MC3 (Compound 46) [1] | cationic lipid liver levels compared with RDV containing DLinKC2DMA (Compound 45) or MC3 (Compound 46) [2]
CCCCC/C=C\C/C=C\CCCCCCCCCC(CCCCCCCCC)CCN(C)C (stereo not shown) [Compound 32, (13Z,16Z)—N,N-dimethyl-3-nonyldocosa-13,16-dien-1-amine] | improved tolerability | lower than
CCCCCCCCCC(CCCCCCCC1CC1CCCCCCCC)N(C)C [Compound 33, N,N-dimethyl-1-[(1S,2R)-2-octylcyclopropyl]hepladecan-8-amine] | improved tolerability | lower than
